According to the NIST ThermoML archive (doi:10.1021/je501065g):

Settings: Liquid, Pulse-echo method

c1ccccc1 [benzene]
Settings	speed of sound [m/s]
283.2 K, 102.1 kPa	1372
283.2 K, 5280.1 kPa	1396
283.2 K, 10234 kPa	1418.2
283.2 K, 15332 kPa	1439.9
283.2 K, 20204 kPa	1460.2
283.2 K, 24857 kPa	1479
283.21 K, 29815 kPa	1498.1
298.2 K, 84.2 kPa	1299.7
298.2 K, 5421.7 kPa	1327
298.2 K, 10069 kPa	1349.5
298.2 K, 14866 kPa	1371
298.2 K, 20104 kPa	1394.3
298.2 K, 25018 kPa	1415.8
298.2 K, 30106 kPa	1436.9
313.2 K, 61.2 kPa	1230.4
313.2 K, 5536.5 kPa	1259.8
313.2 K, 10140 kPa	1283.5
313.2 K, 15332 kPa	1309
313.2 K, 20194 kPa	1332.2
313.2 K, 25204 kPa	1354.8
313.2 K, 29980 kPa	1375.7
333.21 K, 153.7 kPa	1139.7
333.21 K, 5378.8 kPa	1171.4
333.21 K, 10149 kPa	1198.3
333.21 K, 15038 kPa	1225
333.21 K, 19601 kPa	1248.5
333.21 K, 24756 kPa	1274
333.21 K, 30146 kPa	1299.2
353.2 K, 15092 kPa	1146.6
353.2 K, 19918 kPa	1173.2
353.21 K, 172.3 kPa	1052.2
353.21 K, 5094.9 kPa	1084.9
353.21 K, 10007 kPa	1116.2
353.21 K, 24680 kPa	1198.7
353.21 K, 30063 kPa	1226

CCO [ethanol]
Settings	speed of sound [m/s]
253.22 K, 104.2 kPa	1304.8
253.22 K, 130.2 kPa	1305.1
253.22 K, 5018.8 kPa	1330.4
253.22 K, 5283.4 kPa	1331.5
253.22 K, 10112 kPa	1355.4
253.22 K, 10246 kPa	1355.8
253.22 K, 15106 kPa	1379.1
253.22 K, 15229 kPa	1379.4
253.22 K, 19991 kPa	1401.4
253.22 K, 20403 kPa	1402.9
253.22 K, 24921 kPa	1422.9
253.22 K, 25022 kPa	1423.6
253.22 K, 30114 kPa	1444.8
253.23 K, 30052 kPa	1444.5
273.2 K, 99.9 kPa	1230.8
273.2 K, 5193.3 kPa	1259.3
273.2 K, 10100 kPa	1285.4
273.2 K, 15284 kPa	1311.7
273.2 K, 20253 kPa	1336
273.2 K, 25058 kPa	1358.8
273.2 K, 25221 kPa	1359.3
273.2 K, 30203 kPa	1381.6
273.21 K, 128.6 kPa	1231.1
273.21 K, 5026.6 kPa	1258.5
273.21 K, 10148 kPa	1285.8
273.21 K, 15029 kPa	1310.8
273.21 K, 20070 kPa	1335.2
273.21 K, 30338 kPa	1382.2
293.2 K, 103.7 kPa	1160
293.2 K, 5339.4 kPa	1192
293.2 K, 10368 kPa	1220.8
293.2 K, 15197 kPa	1247.2
293.2 K, 20222 kPa	1273.4
293.2 K, 25256 kPa	1298.5
293.2 K, 30069 kPa	1321.4
293.21 K, 140 kPa	1160.4
293.21 K, 5169 kPa	1191
293.21 K, 9977.3 kPa	1218.7
293.21 K, 15052 kPa	1246.6
293.21 K, 20101 kPa	1272.9
293.21 K, 25034 kPa	1297.5
293.21 K, 30268 kPa	1322.5
313.21 K, 103.8 kPa	1091.9
313.21 K, 121.8 kPa	1092.3
313.21 K, 5023.3 kPa	1124.7
313.21 K, 5318.6 kPa	1126.5
313.21 K, 10011 kPa	1155.8
313.21 K, 10351 kPa	1157.8
313.21 K, 14993 kPa	1185.1
313.21 K, 15238 kPa	1186.6
313.21 K, 20052 kPa	1213.5
313.21 K, 20317 kPa	1214.8
313.21 K, 25163 kPa	1240.5
313.21 K, 25383 kPa	1241.6
313.21 K, 30116 kPa	1265.6
313.21 K, 30384 kPa	1266.8
333.21 K, 104.1 kPa	1024.9
333.21 K, 137.3 kPa	1025.2
333.21 K, 5087.6 kPa	1061.2
333.21 K, 5212.7 kPa	1062.1
333.21 K, 10090 kPa	1095
333.21 K, 10228 kPa	1095.9
333.21 K, 15025 kPa	1126.4
333.21 K, 15294 kPa	1127.9
333.21 K, 19954 kPa	1155.9
333.21 K, 20181 kPa	1157.1
333.21 K, 24959 kPa	1184.2
333.21 K, 25377 kPa	1186.4
333.21 K, 30028 kPa	1211.3
333.21 K, 30214 kPa	1212.3
353.2 K, 103.5 kPa	957.73
353.21 K, 132.1 kPa	957.59
353.21 K, 5006 kPa	996.76
353.21 K, 5137.5 kPa	997.75
353.21 K, 10089 kPa	1034.4
353.21 K, 10319 kPa	1035.9
353.21 K, 15035 kPa	1068.3
353.21 K, 15211 kPa	1069.4
353.21 K, 20108 kPa	1100.9
353.21 K, 20273 kPa	1101.7
353.21 K, 25007 kPa	1130.5
353.21 K, 25250 kPa	1131.8
353.21 K, 30102 kPa	1159.5
353.21 K, 30289 kPa	1160.5
